# From patent US20090181898A1, “ABUSE-RESISTANT A[…]” (SHIRE LLC, priority 2002, published 2009)
# Marks after values point to notes of the source that are not given here.
# Columns and labels:
# [1] = Stability under concentrated conditions (concentrated HCl, 10 N NaOH, elevated temperature)
# [2] = Oral bioavailability of L-lysine-d-amphetamine dimesylate at various doses 1.5-60 mg/kg (ELISA); settings: rat
# Protocol: The mean plasma concentrations for 1.5, 3, and 6 mg/kg are shown in Table 6, Table 7, and Table 8, respectively.
# [3] = 10 N NaOH, elevated temperature
# [4] = conc. HCl, about 90° C. for 1 hour, 0.4 mg/mL
molecule,measurement,setting,value
"CC(Cc1ccccc1)NC(=O)C(N)CCCCN [L-lysine-d-amphetamine, 2,6-diaminohexanoic acid-(1-methyl-2-phenylethyl)-amide]",% AUC Lys-Amp (HPLC),[1]; [3],99 % AUC
same,% AUC d-amphetamine (HPLC),[1]; [3],<1 % AUC
same,% AUC Lys-Amp (HPLC),[1]; [4],96 % AUC
same,% AUC d-amphetamine (HPLC),[1]; [4],4 % AUC
same,d-amphetamine released under concentrated conditions,"[1]; concentrated HCl, about 90° C., 1 hour, HPLC",only a minimal amount
d-amphetamine,AUC of d-amphetamine,[2]; 3 mg/kg,587 ng·h/mL
same,Cmax of d-amphetamine,[2]; 3 mg/kg,141 ng/mL
same,Tmax of d-amphetamine,[2]; 3 mg/kg,60 min
same,"Tmax, Percent (of Amp)",[2]; 3 mg/kg,100%
same,Mean plasma amphetamine concentration,"[2]; 3 mg/kg, 0 h",0 ng/mL
same,Mean plasma amphetamine concentration,"[2]; 3 mg/kg, 0.5 h",107 ng/mL
same,Mean plasma amphetamine concentration,"[2]; 3 mg/kg, 1 h",121 ng/mL
same,Mean plasma amphetamine concentration,"[2]; 3 mg/kg, 3 h",91 ng/mL
same,Mean plasma amphetamine concentration,"[2]; 3 mg/kg, 5 h",62 ng/mL
same,Mean plasma amphetamine concentration,"[2]; 3 mg/kg, 8 h",19 ng/mL
same,AUC of d-amphetamine,[2]; 6 mg/kg,807 ng·h/mL
same,Cmax of d-amphetamine,[2]; 6 mg/kg,205 ng/mL
same,Tmax of d-amphetamine,[2]; 6 mg/kg,33.8 min
same,"Tmax, Percent (of Amp)",[2]; 6 mg/kg,100%
same,Mean plasma amphetamine concentration,"[2]; 6 mg/kg, 0 h",0 ng/mL
same,Mean plasma amphetamine concentration,"[2]; 6 mg/kg, 0.5 h",186 ng/mL
same,Mean plasma amphetamine concentration,"[2]; 6 mg/kg, 1 h",167 ng/mL
same,Mean plasma amphetamine concentration,"[2]; 6 mg/kg, 3 h",111 ng/mL
same,Mean plasma amphetamine concentration,"[2]; 6 mg/kg, 5 h",78 ng/mL
same,Mean plasma amphetamine concentration,"[2]; 6 mg/kg, 8 h",35 ng/mL
same,AUC of d-amphetamine,[2]; 12 mg/kg,"2,738 ng · h/ml"
same,Cmax of d-amphetamine,[2]; 12 mg/kg,621 ng/mL
same,Tmax of d-amphetamine,[2]; 12 mg/kg,56.3 min
same,"Tmax, Percent (of Amp)",[2]; 12 mg/kg,100%
same,Mean plasma amphetamine concentration,"[2]; 12 mg/kg, 0.5 h",621 ng/mL
same,Mean plasma amphetamine concentration,"[2]; 12 mg/kg, 1 h",512 ng/mL
same,Mean plasma amphetamine concentration,"[2]; 12 mg/kg, 3 h",376 ng/mL
same,Mean plasma amphetamine concentration,"[2]; 12 mg/kg, 5 h",314 ng/mL
same,Mean plasma amphetamine concentration,"[2]; 12 mg/kg, 8 h",103 ng/mL
same,Cmax of d-amphetamine,[2]; 30 mg/kg,"3,726 ng/ml"
same,AUC of d-amphetamine (0-5 h),"[2]; 30 mg/kg, 0-5 h","12,623* ng · h/ml"
same,Mean plasma amphetamine concentration,"[2]; 30 mg/kg, 0.5 h","2,583 ng/ml"
same,Mean plasma amphetamine concentration,"[2]; 30 mg/kg, 1 h","3,162 ng/ml"
same,Mean plasma amphetamine concentration,"[2]; 30 mg/kg, 3 h","2,620 ng/ml"
same,Mean plasma amphetamine concentration,"[2]; 30 mg/kg, 5 h","1,535 ng/ml"
same,Mean plasma amphetamine concentration,"[2]; 30 mg/kg, 8 h",164 ng/mL
same,Cmax of d-amphetamine,[2]; 60 mg/kg,"4,101 ng/ml"
same,AUC of d-amphetamine (0-[…]),"[2]; 60 mg/kg, 0-[…]","5,081** ng · h/ml"
same,Mean plasma amphetamine concentration,"[2]; 60 mg/kg, 0.5 h","3,566 ng/ml"
same,Mean plasma amphetamine concentration,"[2]; 60 mg/kg, 1 h","3,556 ng/ml"
same,AUC of d-amphetamine,[2]; […],481 ng·h/mL
same,Cmax of d-amphetamine,[2]; […],133 ng/mL
same,Tmax of d-amphetamine,[2]; […],56.3 min
same,"Tmax, Percent (of Amp)",[2]; […],100%
same,Mean plasma amphetamine concentration,"[2]; […], 0 h",0 ng/mL
same,Mean plasma amphetamine concentration,"[2]; […], 0.5 h",126 ng/mL
same,Mean plasma amphetamine concentration,"[2]; […], 1 h",101 ng/mL
same,Mean plasma amphetamine concentration,"[2]; […], 3 h",66 ng/mL
same,Mean plasma amphetamine concentration,"[2]; […], 5 h",40 ng/mL
same,Mean plasma amphetamine concentration,"[2]; […], 8 h",17 ng/mL
